The source of these data is ChEMBL document CHEMBL6109139, “Rational Design of the First Dual Agonist at Trace Amine-Associated Receptor 1 and 5-HT2C Receptors Based on Binding Pocket Similarity for the Treatment of Schizophrenia and Alzheimer's Disease-Related Psychosis” (J Med Chem, 2025).

Calls of active or inactive are those of the source. The rule behind the calls is not given here.

As usually defined, the fraction unbound is the share of the substance not bound to proteins or other matrix. What is called IC50 is the midpoint of a concentration-inhibition curve. As usually defined, the efflux ratio is a quotient of directional permeabilities that is used to spot active efflux. For orientation: Papp A→B means how fast a substance crosses the layer from the apical side. As usually defined, the EC50 is the concentration giving half of the maximal effect.

Series [1] deals with Mus musculus. The series can be described thus: Antidepressant activity in chronic social defeat stress induced depressive C57BL/6J mouse model assessed as increase in time of interaction zone at 10 mg/kg, IG measured after 15 mins by open field test. It is filed as functional, organism-based.
The nature of series [2]: Plasma protein binding in dog assessed as unbound fraction by LC-MS/MS analysis. It counts as ADME, cell-free, Canis lupus familiaris.
Series [3] in a line: Plasma protein binding in human assessed as unbound fraction by LC-MS/MS analysis. It is filed as ADME, cell-free.
Series [4] has as its target Cytochrome P450 2C9 (Homo sapiens, UniProt P11712). The series can be described thus: Inhibition of CYP2C9 in human liver microsomes in presence of NADPH by LC-MS/MS analysis. It counts as ADME, Microsome. (Microsomes from liver hold many membrane-bound enzymes, among them those of drug oxidation.)
The target of series [5] is Cytochrome P450 2C19 (Homo sapiens, UniProt P33261). Description: Inhibition of CYP2C19 in human liver microsomes in presence of NADPH by LC-MS/MS analysis. It is filed as ADME, Microsome.
Cytochrome P450 2C19, sequence (P33261 whole entry): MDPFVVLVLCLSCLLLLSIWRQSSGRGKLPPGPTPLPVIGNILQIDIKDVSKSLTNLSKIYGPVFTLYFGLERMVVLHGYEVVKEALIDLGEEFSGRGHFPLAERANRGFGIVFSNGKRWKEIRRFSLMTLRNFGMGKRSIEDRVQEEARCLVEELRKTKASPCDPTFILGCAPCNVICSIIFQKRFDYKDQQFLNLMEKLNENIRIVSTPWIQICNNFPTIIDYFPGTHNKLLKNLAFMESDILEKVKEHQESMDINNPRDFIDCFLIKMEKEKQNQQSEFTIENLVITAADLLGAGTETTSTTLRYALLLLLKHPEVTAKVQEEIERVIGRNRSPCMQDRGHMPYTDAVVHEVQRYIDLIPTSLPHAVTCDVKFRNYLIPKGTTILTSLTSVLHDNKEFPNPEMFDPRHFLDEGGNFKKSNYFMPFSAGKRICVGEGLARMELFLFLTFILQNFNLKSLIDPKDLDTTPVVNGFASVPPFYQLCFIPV
Series [6] is described as follows: Efflux ratio of apparent permeability across apical to basolateral side in human Caco-2 cells at 2 uM by LC-MS/MS analysis. It counts as ADME, cell-based. On the technique in general: Caco-2 monolayers are a common model of the intestinal barrier.
For series [7], the target named is Cytochrome P450 3A4 (Homo sapiens, UniProt P08684). Description: Inhibition of CYP3A4 in human liver microsomes in presence of NADPH by LC-MS/MS analysis. It is filed as ADME, Microsome.
Cytochrome P450 3A4, sequence (P08684 whole entry): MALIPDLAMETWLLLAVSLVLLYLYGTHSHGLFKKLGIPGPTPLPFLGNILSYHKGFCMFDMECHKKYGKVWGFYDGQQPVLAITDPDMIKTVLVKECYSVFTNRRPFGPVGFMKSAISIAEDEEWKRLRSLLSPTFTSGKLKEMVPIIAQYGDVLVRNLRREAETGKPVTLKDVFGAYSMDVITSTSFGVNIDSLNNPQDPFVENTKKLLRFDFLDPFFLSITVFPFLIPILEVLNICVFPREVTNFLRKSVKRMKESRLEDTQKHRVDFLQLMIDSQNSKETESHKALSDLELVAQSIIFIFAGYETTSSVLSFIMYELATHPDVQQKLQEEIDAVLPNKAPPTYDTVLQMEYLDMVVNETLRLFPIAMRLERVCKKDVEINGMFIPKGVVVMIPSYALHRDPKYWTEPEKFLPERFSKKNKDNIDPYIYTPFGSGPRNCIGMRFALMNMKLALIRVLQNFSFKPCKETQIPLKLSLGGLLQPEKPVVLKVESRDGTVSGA
Series [8] is described as follows: Drug uptake in male Sprague-Dawley rat brain assessed as parent compound remaining measured after 6 hrs. It counts as ADME, tissue-based. Conditions: read-out: Activity.
A short description of series [9]: Apparent permeability across apical to basolateral side in human Caco-2 cells at 2 uM by LC-MS/MS analysis. It counts as ADME, cell-based.
Series [10] can be described thus: Metabolic stability in human liver microsomes assessed as intrinsic clearance at 1 uM incubated for 60 mins by LC-MS/MS analysis. It counts as ADME, Microsome. Conditions: read-out: CLH.
Series [11] is described as follows: Inhibition of CYP2D6 in human liver microsomes in presence of NADPH by LC-MS/MS analysis. It is filed as ADME, Microsome.
Series [12] concerns the target Cytochrome P450 2B6 (Homo sapiens, UniProt P20813). Description: Inhibition of CYP2B6 in human liver microsomes in presence of NADPH by LC-MS/MS analysis. It counts as ADME, Microsome.
Series [13] deals with T1, 5-hydroxytryptamine receptor 2C (Homo sapiens, UniProt P28335).
T1 sequence (P28335 whole entry): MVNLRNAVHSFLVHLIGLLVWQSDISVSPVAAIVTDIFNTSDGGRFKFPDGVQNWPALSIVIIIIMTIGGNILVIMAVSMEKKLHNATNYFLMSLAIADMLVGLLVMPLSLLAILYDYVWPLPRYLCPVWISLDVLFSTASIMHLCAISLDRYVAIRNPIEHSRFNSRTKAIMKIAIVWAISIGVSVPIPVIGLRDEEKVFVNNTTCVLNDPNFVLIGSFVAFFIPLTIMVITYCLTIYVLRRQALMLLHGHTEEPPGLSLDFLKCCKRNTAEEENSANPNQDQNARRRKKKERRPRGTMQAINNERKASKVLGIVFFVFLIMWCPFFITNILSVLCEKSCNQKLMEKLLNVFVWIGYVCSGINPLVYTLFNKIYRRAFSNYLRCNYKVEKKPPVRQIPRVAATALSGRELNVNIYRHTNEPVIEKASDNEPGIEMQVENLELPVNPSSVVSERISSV
Description: Partial agonist activity at recombinant human 5-HT2CR expressed in HEK293 cells incubated for 2 hrs by FLIPR calcium assay. It is filed as functional, cell-based.

Series [14] addresses Cytochrome P450 1A2 (Homo sapiens, UniProt P05177). Description: Inhibition of CYP1A2 in human liver microsomes in presence of NADPH by LC-MS/MS analysis. It counts as ADME, Microsome.
In series [15] the target is Cytochrome P450 2C8 (Homo sapiens, UniProt P10632). The series can be described thus: Inhibition of CYP2C8 in human liver microsomes in presence of NADPH by LC-MS/MS analysis. It counts as ADME, Microsome.
Cytochrome P450 2C8, sequence (P10632 whole entry): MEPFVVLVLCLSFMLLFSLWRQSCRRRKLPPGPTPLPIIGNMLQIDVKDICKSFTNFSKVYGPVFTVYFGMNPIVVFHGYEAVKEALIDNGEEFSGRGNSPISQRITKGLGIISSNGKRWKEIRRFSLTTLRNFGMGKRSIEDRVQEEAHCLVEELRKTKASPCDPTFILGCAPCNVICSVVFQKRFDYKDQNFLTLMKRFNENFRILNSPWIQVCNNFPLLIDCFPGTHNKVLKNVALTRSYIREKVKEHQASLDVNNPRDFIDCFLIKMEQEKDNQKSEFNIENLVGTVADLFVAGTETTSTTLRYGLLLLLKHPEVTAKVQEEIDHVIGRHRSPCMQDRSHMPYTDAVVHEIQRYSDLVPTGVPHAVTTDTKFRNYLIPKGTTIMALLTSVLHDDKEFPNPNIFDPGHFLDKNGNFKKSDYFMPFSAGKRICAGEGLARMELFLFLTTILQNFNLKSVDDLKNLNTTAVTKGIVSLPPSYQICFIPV
Series [16] in a line: Metabolic stability in rat liver microsomes assessed as intrinsic clearance at 1 uM incubated for 60 mins by LC-MS/MS analysis. It counts as ADME, Microsome. The conditions noted are these: read-out: CLH.
A short description of series [17]: Plasma protein binding in rat assessed as unbound fraction by LC-MS/MS analysis. It counts as ADME, cell-free.

Cytochrome P450 2B6, sequence (P20813 whole entry): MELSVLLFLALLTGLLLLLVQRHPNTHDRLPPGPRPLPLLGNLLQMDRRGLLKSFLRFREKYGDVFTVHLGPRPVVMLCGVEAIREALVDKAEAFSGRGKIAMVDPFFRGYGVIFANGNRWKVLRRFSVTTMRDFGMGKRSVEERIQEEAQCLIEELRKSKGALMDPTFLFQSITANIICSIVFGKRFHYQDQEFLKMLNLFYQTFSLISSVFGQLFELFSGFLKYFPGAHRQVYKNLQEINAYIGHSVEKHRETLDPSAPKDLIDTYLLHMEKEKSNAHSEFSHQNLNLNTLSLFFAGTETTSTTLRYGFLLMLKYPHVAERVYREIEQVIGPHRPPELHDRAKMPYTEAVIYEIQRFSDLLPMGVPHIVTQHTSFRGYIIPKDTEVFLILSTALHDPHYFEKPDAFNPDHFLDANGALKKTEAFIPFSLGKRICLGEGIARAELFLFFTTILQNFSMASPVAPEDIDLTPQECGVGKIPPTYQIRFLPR
Cytochrome P450 2C9, sequence (P11712 whole entry): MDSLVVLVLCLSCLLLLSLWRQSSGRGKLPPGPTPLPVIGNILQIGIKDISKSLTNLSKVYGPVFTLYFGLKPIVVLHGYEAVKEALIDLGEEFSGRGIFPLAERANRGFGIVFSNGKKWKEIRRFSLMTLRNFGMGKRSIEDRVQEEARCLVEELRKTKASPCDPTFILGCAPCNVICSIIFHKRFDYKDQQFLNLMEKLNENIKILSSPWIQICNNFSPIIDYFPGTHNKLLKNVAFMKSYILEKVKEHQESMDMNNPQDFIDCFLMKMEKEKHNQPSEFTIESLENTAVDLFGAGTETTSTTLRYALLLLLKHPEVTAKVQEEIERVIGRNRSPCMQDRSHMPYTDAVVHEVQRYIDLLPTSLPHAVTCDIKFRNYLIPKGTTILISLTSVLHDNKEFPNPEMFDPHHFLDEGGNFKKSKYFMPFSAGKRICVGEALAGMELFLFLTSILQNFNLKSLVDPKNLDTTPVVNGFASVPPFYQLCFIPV
Cytochrome P450 1A2, sequence (P05177 whole entry): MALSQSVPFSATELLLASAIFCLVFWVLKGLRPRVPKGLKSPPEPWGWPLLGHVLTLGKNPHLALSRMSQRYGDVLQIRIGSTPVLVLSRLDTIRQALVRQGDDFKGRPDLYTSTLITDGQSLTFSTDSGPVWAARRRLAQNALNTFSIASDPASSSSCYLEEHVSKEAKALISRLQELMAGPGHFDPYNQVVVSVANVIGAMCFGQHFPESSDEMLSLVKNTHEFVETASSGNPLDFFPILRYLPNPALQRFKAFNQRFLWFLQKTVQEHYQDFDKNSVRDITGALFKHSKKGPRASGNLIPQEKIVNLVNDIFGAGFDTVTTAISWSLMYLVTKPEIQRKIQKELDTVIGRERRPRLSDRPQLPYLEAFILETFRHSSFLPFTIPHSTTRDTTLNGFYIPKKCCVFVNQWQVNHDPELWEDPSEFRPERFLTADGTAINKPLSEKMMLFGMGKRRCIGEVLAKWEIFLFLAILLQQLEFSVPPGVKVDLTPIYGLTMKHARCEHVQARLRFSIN

Take `Cc1cc2c(s1)Nc1ccccc1N=C2N1CCN(C)CC1`: the result in series [1] was Active.

As for `COc1ccsc1C1CNCCO1` (stereo in doubt; 25a), the fraction unbound worked out at 0.73 in series [2], 0.747 in [3] and 0.872 in series [17]. Besides, the IC50 in series [4], in series [5], in series [7], in series [11], in [12] and in series [14] was greater than 50 µM throughout. In series [15], the IC50 was greater than 50 µM. In addition, in [6], the efflux ratio at 2 µM is 0.6. In series [8], the remaining at 6 h is less than 20%. Also, in series [9], the Papp A→B at 2 µM amounted to 46 ×10⁻⁶ cm/s. The values for the CLint scaled at 1 µM in series [10] and in [16] were less than 6.8 mL/min/kg and less than 13.5 mL/min/kg, respectively. In series [13], the half-maximal effective concentration (EC50) stood at 4.39 µM.
